SMILES strings stand for the structures. Where a SMILES comes first, the peptide text is derived from it. [ ]: non-standard residue; d: D form. Inp = O=C(O)C1CCNCC1

The target in assay [1] is T1, fibrinogen binding to thrombin-stimulated platelets (GPIIb/IIIa fibrinogen receptor) (Homo sapiens, UniProt P05106+P08514).
T1 construct: endogenous in cells; host or cells: washed platelets, thrombin-stimulated
Put plainly: Inhibition of radiolabeled (125I) fibrinogen binding assay. The following applies: thrombin-stimulated washed platelets; 125I-fibrinogen held at 0.176 μmol/liter (60 μg/ml); 22°-25° C. As to the method:
I. Inhibition of Radiolabeled (^125 I) Fibrinogen Binding Assay, which is essentially based on the method described in Proc. Natl. Acad. Sci. U.S.A. Vol. 83, pp. 5708-5712, August 1986, and is as follows.
Platelets are washed free of plasma constituents by the albumin density-gradient technique. In each experimental mixture platelets in modified Tyrode's buffer are stimulated with human α-thrombin at 22°-25° C. for 10 minutes (3.125×10" platelets per liter and thrombin at […]). Hirudin is then added at a 25-fold excess for 5 minutes before addition of the radiolabeled ligand and any competing ligand. After these additions, the final platelet count in the mixture is 1×10"/liter. After incubation for an additional 30 minutes at 22°-25° C., bound and free ligand are separated by centrifuging 50 μl of the mixture through 300 μl of 20% sucrose at 12,000 xg for 4 minutes. The platelet pellet is then separated from the rest of the mixture to determine platelet-bound radioactivity. Nonspecific binding is measured in mixtures containing an excess of unlabeled ligand. When binding curves are analyzed by Scatchard analysis, nonspecific binding is derived as a fitted parameter from the binding isotherm by means of a computerized program. To determine the concentration of each inhibitory compound necessary to inhibit 50% of fibrinogen binding to thrombin-stimulated platelets (IC50), each compound is tested at 6 or more concentrations with ^125 I-labeled fibrinogen held at 0.176 μmol/liter (60 μg/ml). The IC50 is derived by plotting residual fibrinogen binding against the logarithm of the sample compound's concentration.

Assay [2] addresses Human Platelets (Homo sapiens, UniProt P05106+P08514). Put plainly: Inhibition of fibrinogen-mediated platelet aggregation. In kind it is cell-based. The following applies: compound at 100 μM; thrombin-activated human platelets, human fibrinogen added. As to the method: II. Inhibition of Fibrinogen - Mediated Platelet Aggregation, which is essentially based on the method described in Blood, Vol. 66, No. 4, Oct. 1985, pp. 946-952, and is as follows.
Human Platelets were isolated from freshly drawn whole blood and were suspended in 0.14 mol/L NaCl, 2.7 mmol/L […], 12 mmol/L NaHCO3, 0.42 mmol/L Na2 HPO4, 0.55 mmol/L glucose, and 5 mmol/L Hepes, pH 7.35 at 2×10^8 platelets/ml. The suspension was incubated at 37° C. An aliquot of 0.4 ml of platelet suspension was activated by human thrombin at a final concentration of 2 μg/ml of thrombin for one minute. After one minute the reaction was stopped by a thrombin inhibitor. Serial dilution of the compound being tested was then added to the activated platelet, the reaction was allowed to proceed for one minute, followed by the addition of human fibrinogen at a final concentration of […] of fibrinogen. Platelet aggregation was then recorded by an aggregometer. Rate of aggregation was used to calculate IC50.

T1 sequence (P08514 32-887 limits assumed): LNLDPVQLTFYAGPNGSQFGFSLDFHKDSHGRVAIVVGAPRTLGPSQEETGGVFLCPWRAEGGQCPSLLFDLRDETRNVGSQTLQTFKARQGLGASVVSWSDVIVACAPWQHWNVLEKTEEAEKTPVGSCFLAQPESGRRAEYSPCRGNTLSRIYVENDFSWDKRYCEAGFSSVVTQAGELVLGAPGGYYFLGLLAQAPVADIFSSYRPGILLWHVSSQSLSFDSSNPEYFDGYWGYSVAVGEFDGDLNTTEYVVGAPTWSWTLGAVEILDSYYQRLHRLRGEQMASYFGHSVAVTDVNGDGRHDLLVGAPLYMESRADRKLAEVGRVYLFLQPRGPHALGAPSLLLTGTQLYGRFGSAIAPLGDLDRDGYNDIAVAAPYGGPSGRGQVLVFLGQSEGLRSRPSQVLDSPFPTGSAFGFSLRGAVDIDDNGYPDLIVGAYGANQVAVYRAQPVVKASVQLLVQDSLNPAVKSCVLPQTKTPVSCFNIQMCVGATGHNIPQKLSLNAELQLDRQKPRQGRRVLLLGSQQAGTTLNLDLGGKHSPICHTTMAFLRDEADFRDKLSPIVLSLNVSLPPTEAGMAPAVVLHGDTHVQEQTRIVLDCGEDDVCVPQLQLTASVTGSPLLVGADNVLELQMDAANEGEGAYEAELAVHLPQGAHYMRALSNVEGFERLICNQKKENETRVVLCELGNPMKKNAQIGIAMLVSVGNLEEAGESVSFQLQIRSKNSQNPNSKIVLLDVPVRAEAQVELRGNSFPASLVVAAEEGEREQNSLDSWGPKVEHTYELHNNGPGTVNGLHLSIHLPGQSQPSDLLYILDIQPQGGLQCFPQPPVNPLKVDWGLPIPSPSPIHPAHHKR
T1 sequence (P08514 891-1039 limits assumed): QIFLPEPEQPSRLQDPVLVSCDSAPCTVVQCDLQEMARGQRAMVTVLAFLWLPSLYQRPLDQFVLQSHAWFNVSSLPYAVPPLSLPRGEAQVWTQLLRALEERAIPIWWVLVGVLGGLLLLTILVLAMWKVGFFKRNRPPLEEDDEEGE
T1 sequence (P05106 27-788): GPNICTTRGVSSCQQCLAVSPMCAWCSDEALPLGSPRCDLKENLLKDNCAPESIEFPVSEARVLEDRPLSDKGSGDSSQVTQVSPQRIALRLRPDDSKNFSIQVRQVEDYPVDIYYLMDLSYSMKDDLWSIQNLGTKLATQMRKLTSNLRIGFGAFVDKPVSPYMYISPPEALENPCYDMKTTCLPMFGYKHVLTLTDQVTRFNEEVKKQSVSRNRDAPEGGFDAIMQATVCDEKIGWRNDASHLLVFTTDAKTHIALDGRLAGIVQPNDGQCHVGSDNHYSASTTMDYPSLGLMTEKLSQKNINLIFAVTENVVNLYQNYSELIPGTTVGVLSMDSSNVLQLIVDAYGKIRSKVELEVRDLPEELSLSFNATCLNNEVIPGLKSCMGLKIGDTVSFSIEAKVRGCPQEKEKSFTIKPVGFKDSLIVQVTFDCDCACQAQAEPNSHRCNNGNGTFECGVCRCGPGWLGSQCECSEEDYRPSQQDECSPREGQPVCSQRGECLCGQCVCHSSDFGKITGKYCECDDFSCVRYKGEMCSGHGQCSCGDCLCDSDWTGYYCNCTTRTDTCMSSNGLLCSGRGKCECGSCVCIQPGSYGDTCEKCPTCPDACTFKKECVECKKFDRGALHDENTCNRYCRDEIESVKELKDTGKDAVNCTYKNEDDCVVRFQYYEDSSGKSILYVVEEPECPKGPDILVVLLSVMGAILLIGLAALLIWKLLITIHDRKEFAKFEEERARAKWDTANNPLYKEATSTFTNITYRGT
Human Platelets, sequence (P08514 32-1039): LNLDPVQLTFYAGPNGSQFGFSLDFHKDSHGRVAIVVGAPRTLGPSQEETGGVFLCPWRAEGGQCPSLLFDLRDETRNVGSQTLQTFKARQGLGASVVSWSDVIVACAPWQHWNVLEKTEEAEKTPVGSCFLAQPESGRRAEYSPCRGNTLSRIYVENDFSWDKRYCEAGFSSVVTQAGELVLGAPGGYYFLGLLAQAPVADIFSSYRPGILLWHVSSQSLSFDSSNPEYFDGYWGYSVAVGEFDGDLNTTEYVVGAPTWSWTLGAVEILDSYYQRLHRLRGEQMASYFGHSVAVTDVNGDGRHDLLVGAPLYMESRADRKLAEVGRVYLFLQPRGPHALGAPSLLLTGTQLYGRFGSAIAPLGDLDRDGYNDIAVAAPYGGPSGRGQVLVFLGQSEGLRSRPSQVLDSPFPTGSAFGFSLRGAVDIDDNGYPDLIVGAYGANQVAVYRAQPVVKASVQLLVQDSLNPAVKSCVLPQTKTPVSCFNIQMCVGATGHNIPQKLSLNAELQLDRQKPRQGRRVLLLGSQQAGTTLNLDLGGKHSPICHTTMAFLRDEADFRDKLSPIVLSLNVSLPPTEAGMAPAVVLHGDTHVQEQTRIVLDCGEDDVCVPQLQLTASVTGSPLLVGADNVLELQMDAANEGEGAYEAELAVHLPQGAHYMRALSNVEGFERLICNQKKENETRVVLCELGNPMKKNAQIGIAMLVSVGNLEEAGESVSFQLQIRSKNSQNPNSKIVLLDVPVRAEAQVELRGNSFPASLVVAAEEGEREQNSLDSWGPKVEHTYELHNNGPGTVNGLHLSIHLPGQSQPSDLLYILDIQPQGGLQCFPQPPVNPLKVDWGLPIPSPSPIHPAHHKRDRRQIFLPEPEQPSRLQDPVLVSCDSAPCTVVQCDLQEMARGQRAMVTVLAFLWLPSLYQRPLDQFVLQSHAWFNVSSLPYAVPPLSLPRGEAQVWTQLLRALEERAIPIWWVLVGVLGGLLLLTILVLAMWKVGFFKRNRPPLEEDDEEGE
Human Platelets, sequence (P05106 27-788): as the sequence (P05106 27-788) above

What is called IC50 is the point on the concentration scale where inhibition reaches its midpoint. Higher therefore signals lower potency. By inhibition is commonly meant the drop in the measured response relative to a control, in per cent. A lower inhibition goes with a response near the control. In the case of `CC(C)[C@H](NC(=O)[C@H](CC(=O)O)NC(=O)CNC(=O)C1CCN(C(=N)N)CC1)C(=O)O` [1-Amidinopiperidine-4-Carboxylglycyl-L-Aspartyl-L-Valine], the IC50 in assay [1] is 1.8 µM. The molecule further gave an inhibition at 100 µM in assay [2] of 92%.
In assay [1], `CC(C)[C@H](NC(=O)[C@H](CC(=O)O)NC(=O)CNC(=O)C1CCNCC1)C(=O)O` [Piperidine-4-carboxylglycyl-L-Aspartyl-L-Valine] (H-[Inp]GDV-OH) had a concentration for half-maximal inhibition (IC50) of 10.5 µM. In addition, in assay [2], the inhibition at 100 µM turned out to be 86%.
`CC(C)[C@H](NC(=O)[C@H](CC(=O)O)NC(=O)CNC(=O)C1CCCNC1)C(=O)O` (stereo partly drawn) [Piperidine-3-Carboxylglycyl-L-Aspartyl-L-Valine] showed an IC50 in assay [1] of over 64 µM. The molecule also yielded an inhibition at 100 µM in assay [2] of 78%.
Regarding `CC(C)[C@H](NC(=O)[C@H](CC(=O)O)NC(=O)CNC(=O)C1CCCN(C(=N)N)C1)C(=O)O` (stereo partly drawn) [N-amidinopiperidine-3-carboxylglycyl-L-aspartyl-L-valine], the IC50 in assay [1] was determined as 10.5 µM. The molecule also displayed an inhibition at 100 µM in assay [2] of 87%.

Source of the values: patent US5051405A, “Anti-thrombotic peptides and pseudopeptides” (Rhone-Poulenc Rorer Pharmaceuticals Inc., priority 1989, dated 1991).
